Earlier results in patent US11185067B2, “Attractants for rats” (priority 2015, dated 2021).

System: rats
Conditions: odor-painted glass rods inserted into cage; Zhang et al. 2008, 2011

For `CCCCCC(C)=O` [2-heptanone], the “effects on rat behavior” value is given as “inducing sniffing or licking”.
For `CCCCCCCC(C)=O` [2-nonanone], the “effects on rat behavior” value is given as “inducing sniffing or licking”.
For `CCCC(=O)CCC` [4-heptanone], the “effects on rat behavior” value is given as “inducing sniffing or licking”.
